Data published in patent US10358464B2, “Specific binding sites in collagen for integrins and use thereof” (The Texas A&M University System, priority 2005, dated 2019).
Non-standard residues stand in square brackets, D forms with d. Residues, ends and D or L forms follow the SMILES beside them. Hyp = O=C(O)[C@@H]1C[C@@H](O)CN1

How the values were obtained:
[1] = molecular target: T1, α1I binding to type III collagen (Homo sapiens, UniProt P56199); assay: Competition ELISA, inhibition of I domain binding to type III collagen; conditions: 100 μM peptide, 0.5 μM α1I, type III procollagen-coated wells
T1 construct: recombinant I domains from integrins α1 and α2 (α1I and α2I); made in house
T1 sequence (P56199 161-360 limits assumed): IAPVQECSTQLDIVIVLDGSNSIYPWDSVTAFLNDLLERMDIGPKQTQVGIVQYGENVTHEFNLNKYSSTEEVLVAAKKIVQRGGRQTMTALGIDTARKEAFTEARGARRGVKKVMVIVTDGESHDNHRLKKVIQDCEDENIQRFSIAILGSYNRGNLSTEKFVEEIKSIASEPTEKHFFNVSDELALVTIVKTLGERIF

[2] = molecular target: T2, α2I binding to type III collagen (Homo sapiens, UniProt P17301); assay: as above; conditions: 100 μM peptide, 5 μM α2I, type III procollagen-coated wells
T2 construct: recombinant I domains from integrins α1 and α2 (α1I and α2I); made in house
T2 sequence (P17301 188-365 limits assumed): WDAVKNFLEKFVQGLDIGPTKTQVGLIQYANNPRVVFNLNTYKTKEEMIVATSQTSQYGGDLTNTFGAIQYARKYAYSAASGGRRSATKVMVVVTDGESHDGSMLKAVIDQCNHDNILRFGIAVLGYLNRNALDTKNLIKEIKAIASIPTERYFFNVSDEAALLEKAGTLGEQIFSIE

MRC-5 cells = assay: Cell attachment assay on coated substrates; assay type: cell-based, human; conditions: room temperature
Procedure: Reagents and Cell Culture. The human recombinant mature type III collagen used for cell attachment assays was purchased from FibroGen. All cell culture media components were purchased from Invitrogen. The human lung fibroblast cell line MRC-5 was purchased from American Type Culture Collection (ATCC) (Manassas, Va.). The cells were cultured and passaged in Dulbecco's modified Eagle's medium (DMEM) supplemented with 10% fetal bovine serum, 100 unit/ml penicillin and 100 μg/ml streptomycin. The cells were grown to subconfluence and passaged every 2-3 days.
Cell attachment assay. MRC-5 cells were starved overnight in serum deficient DMEM containing penicillin and streptomycin, then detached using 1 mM EDTA and 0.025% trypsin at 37° C. for 2 minutes. The cells were washed with PBS and resuspended in DMEM containing 0.2% BSA supplemented with 2 mM MgCl2. 100 μl of the cell suspension (˜1.5×10^5 cells/ml) were added to the microtiter wells coated with different concentrations of collagen or collagen peptides and blocked with PBS containing 0.5% (w/v) BSA. After incubation at room temperature for 45 min, the wells were washed with PBS. Attached cells were fixed with 3% p-formaldehyde for 10 min at room temperature. Following washing with cold Tris-buffered saline (TBS), pH 7.4, cells were fixed again in 20% methanol for 10 min and stained with 0.5% crystal violet for 5 min. The wells were thoroughly washed with distilled water and air-dried. Sodium citrate (0.1 M) was then added to the wells to dissolve the dye and the absorbance at 590 nm was measured. The maximum cell attachment on type III collagen was set to 100% and, residual attachment on BSA was set to 0%.
Adhesion of MRC-5 cells to peptide#1 (SEQ ID NO: 15) substrates. […] Wells in 96-well plates were coated with increasing concentrations of type III collagen, peptide #1 (SEQ ID NO: 15) or #2 (SEQ ID NO: 16) and 1.5×10^4 MRC-5 cells were added to each well. The plate was incubated for 45 min at room temperature and adhering cells were quantified as described herein.

[3] = CD temperature-dependent denaturation of triple helix; assay type: physicochemical; conditions: CD ellipticity at 225 nm, 20° C./hr, Boltzmann sigmoidal fit
Procedure: Circular Dichroism (CD) Spectroscopy. Synthetic collagen peptides were analyzed by CD spectroscopy, as described previously (18) with the following modifications. Briefly, peptides were dissolved in HBS to a concentration of 50 μM. CD spectra were collected on a Jasco J720 spectropolarimeter (Tokyo, Japan) from 190 to 240 nm, with bandwidth of 1 nm and integrated for 1 s at 0.2 nm intervals. Samples were measured at room temperature using cuvettes with 0.02 cm path length. For temperature-dependent denaturation analysis, […] of peptides were added to a thermostatically controlled cuvette with a 0.5 cm path length. Thermal transition profiles were recorded at 225 nm as described above with a temperature slope of 20° C./hr. To calculate the temperature melting points, the thermal transition profiles were fitted with Boltzmann sigmoidal model using the GraphPad Prism™ software (GraphPad Software Inc., San Diego, Calif.).

α1I = α1I (Homo sapiens, UniProt P56199); assay: SPR, I domain binding to immobilized synthetic collagen peptide
Chain of α1I (P56199 161-360 limits assumed): as the sequence (P56199 161-360 limits assumed) above

α2I = α2I (Homo sapiens, UniProt P17301); assay: as above
Chain of α2I (P17301 188-365 limits assumed): as the sequence (P17301 188-365 limits assumed) above

[4] = 30 nM I domain, 2 mM EDTA versus 1 mM MgCl2

For CC(C)C[C@H](NC(=O)CNC(=O)[C@H](CCCNC(=N)N)NC(=O)[C@H](CCC(=O)O)NC(=O)CNC(=O)[C@@H]1C[C@@H](O)CN1C(=O)[C@H](CCCNC(=N)N)NC(=O)CNC(=O)[C@@H]1C[C@@H](O)CN1C(=O)[C@H](CCCNC(=N)N)NC(=O)CNC(=O)[C@@H]1C[C@@H](O)CN1C(=O)[C@@H]1CCCN1C(=O)CNC(=O)[C@@H]1C[C@@H](O)CN1C(=O)[C@@H]1CCCN1C(=O)CNC(=O)[C@@H]1C[C@@H](O)CN1C(=O)[C@@H]1CCCN1C(=O)CN)C(=O)N1C[C@H](O)C[C@H]1C(=O)NCC(=O)N1CCC[C@H]1C(=O)N1C[C@H](O)C[C@H]1C(=O)NCC(=O)N1CCC[C@H]1C(=O)N1C[C@H](O)C[C@H]1C(=O)NCC(=O)N1CCC[C@H]1C(=O)N1C[C@H](O)C[C@H]1C(N)=O [peptide #1, (GPO)3GROGROGERGLO(GPO)3] (H-GP[Hyp]GP[Hyp]GP[Hyp]GR[Hyp]GR[Hyp]GERGL[Hyp]GP[Hyp]GP[Hyp]GP[Hyp]-NH2; N-terminus and C-terminus assumed), the inhibition at 100 µM [1] was 100%, the inhibition at 100 µM [2] was 80% and the “adhesion of MRC-5 cells to coated substrate” value (MRC-5 cells; increasing coating concentrations, 1.5×10^4 cells per well, 45 min) was “could support adhesion of MRC-5 cells in a dose-dependent manner”. For the same molecule, the “cell spreading on coated substrate” value (MRC-5 cells; 1.5 hrs (data not shown)) was “Considerable cell spreading”, the “melting temperature (Tm) of triple helix” value [3] was 43 °C and the Kd (α1I) was 23 nM. The koff (α1I) was 0.0013 s⁻¹, the kon (α1I) was 56000 M⁻¹ s⁻¹ and the “binding in the presence of EDTA” value (α1I; [4]) was “completely abolished binding”. For the same molecule, the “dissociate rate” value (α1I; 15° C., 1:1 binding model) was 1.3 s^−1×10^3, the Kd (α2I) was 283 nM and the koff (α2I) was 0.012 s⁻¹. The kon (α2I) was 44000 M⁻¹ s⁻¹, the “binding in the presence of EDTA” value (α2I; [4]) was “completely abolished binding” and the “dissociate rate” value (α2I; 15° C., 1:1 binding model) was 12 s^−1×10^3.
